Laboratory results taken from doi:10.1101/2025.03.20.644389, “In vivo validation of the palmitoylation cycle as a therapeutic target in NRAS-mutant cancer” (bioRxiv, 2025).

Molecular target: T1, ABHD17B (Homo sapiens, UniProt Q5VST6)
T1 construct: hABHD17B recombinantly expressed in HEK293T cells (membrane proteome)
T1 sequence (Q5VST6 1-288): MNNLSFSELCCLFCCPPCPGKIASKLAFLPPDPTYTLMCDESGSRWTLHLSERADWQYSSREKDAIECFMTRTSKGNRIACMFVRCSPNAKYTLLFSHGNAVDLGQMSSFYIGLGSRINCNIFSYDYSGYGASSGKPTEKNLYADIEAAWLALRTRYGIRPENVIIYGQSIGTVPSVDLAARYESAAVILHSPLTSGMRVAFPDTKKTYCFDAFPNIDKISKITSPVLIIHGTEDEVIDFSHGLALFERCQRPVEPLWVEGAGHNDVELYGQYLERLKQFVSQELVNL
Assay: competitive gel-based ABPP with FP-Rh in transfected HEK293T membrane proteome
Format: biochemical

IC50: 76 nM
Substance: ABD778
